These results are taken from US20170291905A1, “ARGININE […] INHIBITORS AND USES THEREOF” (Epizyme, Inc., priority 2014, published 2017).

The structures appear in SMILES notation. Where a name gives a salt, the structure may show the parent alone.

For this assay, the target named is T1, full-length human PRMT1 isoform 1 (GST-tagged) (Homo sapiens, UniProt Q99873).
T1 construct: GST-tagged PRMT1 was eluted with 50 mM Tris, 2 mM glutathione, pH 7.8, dialysed in buffer A and concentrated; made in house; host or cells: High Five insect cells (baculovirus)
T1 sequence (Q99873 with tags, fused parts or gaps): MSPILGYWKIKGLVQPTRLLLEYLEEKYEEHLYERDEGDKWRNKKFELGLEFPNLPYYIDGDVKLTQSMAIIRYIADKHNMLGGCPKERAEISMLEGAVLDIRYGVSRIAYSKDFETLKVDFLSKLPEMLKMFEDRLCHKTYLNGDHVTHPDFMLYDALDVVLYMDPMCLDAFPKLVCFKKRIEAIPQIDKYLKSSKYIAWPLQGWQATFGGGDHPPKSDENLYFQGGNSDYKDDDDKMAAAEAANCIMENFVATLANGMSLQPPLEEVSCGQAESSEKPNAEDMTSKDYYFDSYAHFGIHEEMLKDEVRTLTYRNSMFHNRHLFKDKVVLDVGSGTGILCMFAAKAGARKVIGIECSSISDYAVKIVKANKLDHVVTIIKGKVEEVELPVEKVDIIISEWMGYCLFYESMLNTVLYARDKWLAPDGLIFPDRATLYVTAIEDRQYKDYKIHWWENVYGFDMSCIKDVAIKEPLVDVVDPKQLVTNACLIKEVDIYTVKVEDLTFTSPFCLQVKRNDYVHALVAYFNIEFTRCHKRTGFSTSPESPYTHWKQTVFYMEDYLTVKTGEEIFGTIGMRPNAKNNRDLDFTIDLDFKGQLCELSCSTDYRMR
Kind of assay: PRMT1 biochemical assay (3H-SAM Flashplate, histone H4 36-50 peptide). As to conditions: 0.5 nM PRMT1, 30 min preincubation, 20 nM peptide. The text has this: S-adenosylmethionine (SAM), S-adenosylhomocysteine (SAH), bicine, Tween20, dimethylsulfoxide (DMSO), bovine skin gelatin (BSG), and Tris(2-carboxyethyl)phosphine hydrochloride solution (TCEP) were purchased from Sigma-Aldrich at the highest level of purity possible. ^3H-SAM was purchase from American Radiolabeled Chemicals with a specific activity of 80 Ci/mmol. 384-well streptavidin Flashplates were purchased from PerkinElmer.
Peptide representative of human histone H4 residues 36-50 was synthesized with an N-terminal linker-affinity tag motif and a C-terminal amide cap by 21st Century Biochemicals. The peptide was purified by high-performance liquid chromatography (HPLC) to greater than 95% purity and confirmed by liquid chromatography mass spectrometry (LC-MS). The sequence was Biot-Ahx-[…]-amide (SEQ ID NO.:1).
Full-length human PRMT1 isoform 1 (NM_001536.5) transcript clone was amplified from an HEK 293 cDNA library, incorporating flanking 5′ sequence encoding a FLAG tag ([…]) (SEQ ID NO.:2) fused directly to Met 1 of PRMT1. The amplified gene was subcloned into pFastBacI (Life Technologies) modified to encode an N-terminal GST tag and a TEV cleavage sequence
Recombinant baculovirus were generated according to Bac-to-Bac kit instructions (Life Technologies). Protein over-expression was accomplished by infecting exponentially growing High Five insect cell culture at 1.5×10^6 cell/ml with 1:100 ratio of virus. Infections were carried out at 27° C. for 48 hours, harvested by centrifugation, and stored at −80° C. for purification.
GST-tagged PRMT1 was eluted with 50 mM Tris, 2 mM glutathione, pH 7.8, dialysed in buffer A and concentrated to 1 mg/mL. The purity of recovered protein was 73%. Reference: Wasilko, D. J. and S. E. Lee: “TIPS: titerless infected-cells preservation and scale-up” Bioprocess J., 5 (2006), pp. 29-32.
General Procedure for PRMT1 Enzyme Assays on Peptide Substrates.
The assays were all performed in a buffer consisting of 20 mM Bicine (pH=7.6), 1 mM TCEP, 0.005% BSG, and 0.002% Tween 20, prepared on the day of use. Compounds in 100% DMSO (1 ul) were spotted into a polypropylene 384-well V-bottom plates (Greiner) using a Platemate Plus outfitted with a 384-channel head (Thermo Scientific). DMSO (1 ul) was added to Columns 11, 12, 23, 24, rows A-H for the maximum signal control and 1 ul of SAH, a known product and inhibitor of PRMT1, was added to columns 11, 12, 23, 24, rows I-P for the minimum signal control. A cocktail (40 ul) containing the PRMT1 enzyme was added by Multidrop Combi (Thermo-Fisher). The compounds were allowed to incubate with PRMT1 for 30 min at room temperature, then a cocktail (10 ul) containing SAM and peptide was added to initiate the reaction (final volume=51 ul). The final concentrations of the components were as follows: PRMT1 was 0.5 nM, ^3H-SAM was 200 nM, non-radiolabeled SAM was 1.5 uM, peptide was 20 nM, SAH in the minimum signal control wells was 1 mM, and the DMSO concentration was 2%. The assays were stopped by the addition of non-radiolabeled SAM (10 ul) to a final concentration of 300 uM, which dilutes the ^3H-SAM to a level where its incorporation into the peptide substrate is no longer detectable. 50 ul of the reaction in the 384-well polypropylene plate was then transferred to a 384-well Flashplate and the biotinylated peptides were allowed to bind to the streptavidin surface for at least 1 hour before being washed once with 0.1% Tween20 in a Biotek ELx405 plate washer. The plates were then read in a PerkinElmer TopCount plate reader to measure the quantity of ^3H-labeled peptide bound to the Flashplate surface, measured as disintegrations per minute (dpm) or alternatively, referred to as counts per minute (cpm).
Where dpm=disintegrations per minute, cmpd=signal in assay well, and min and max are the respective minimum and maximum signal controls. […]
`CNCCN(C)Cc1c[nH]nc1C1CCC(OCCCOC)C2(CCCC2)C1` (mixture of isomers) [compound 19, N1-((3-(10-(3-methoxypropoxy)spiro[4.5]decan-7-yl)-1H-pyrazol-4-yl)methyl)-N1,N2-dimethylethane-1,2-diamine dihydrochloride]: the IC50 was determined as 11.1 nM. To `CN(CCN)Cc1nn(C)cc1[C@H]1CC[C@@]2(CC1)CC(C)(C)CO2` [compound 80] belongs 5.83 nM; to `CNCCN(C)Cc1c[nH]nc1[C@H]1CC[C@]2(CCCOC2)CC1` [compound 4, N1-((3-((6s,9s)-2-oxaspiro[5.5]undecan-9-yl)-1H-pyrazol-4-yl)methyl)-N1,N2-dimethylethane-1,2-diamine], 9.43 nM. With `CNCCN(C)Cc1c[nH]nc1C1C[C@@H](C(=O)N(C)CC(C)C)C(C)(C)[C@H](C(=O)N(C)CC(C)C)C1` (stereo partly drawn) [compound 12] the figure was over 10000 nM; with `CNCCN(C)Cc1nn(C)nc1C1CCC2(CC1)CC(C)(C)CO2` (stereo not drawn) [compound 86], 50.1 nM.

Turning to `CC[C@]12CC[C@](CC)(C[C@H](c3n[nH]cc3CN(C)CCNC)C1)O2` [compound 37, N1-((3-((1R,3r,5S)-1,5-diethyl-8-oxabicyclo[3.2.1]octan-3-yl)-1H-pyrazol-4-yl)methyl)-N1,N2-dimethylethane-1,2-diamine], the IC50 is 25.2 nM. To `CNCCN(C)Cc1c[nH]nc1[C@H]1CC[C@@]2(CCCCO2)CC1` [compound 3] belongs 13.6 nM; to `CNCCN(C)Cc1c[nH]nc1[C@H]1CC[C@@H](COCC(F)(F)F)CC1` [compound 23, N1,N2-dimethyl-N1-((3-((1s,4s)-4-((2,2,2-trifluoroethoxy)methyl)cyclohexyl)-1H-pyrazol-4-yl)methyl)ethane-1,2-diamine], 50.8 nM; to `CNCCN(C)Cc1cn(C)nc1C1CCC(C)(C)[C@@H](C(=O)NCC(C)C)C1` (stereo partly drawn) [compound 25], 702 nM. `CNCCN(C)Cc1c(C)[nH]nc1[C@H]1CC[C@]2(CC1)CC(C)(C)CO2` [compound 58] yielded an IC50 of 38.7 nM. With `CNCCN(C)Cc1c[nH]nc1C1CCC(C)(C)[C@H](COCCCOC)C1` (stereo partly drawn) [compound 30, {2-[({3-[(3R)-3-[(3-methoxypropoxy)methyl]-4,4-dimethylcyclohexyl]-1H-pyrazol-4-yl}methyl)(methyl)amino]ethyl}(methyl)amine] the figure was 21 nM; with `CNCCN(C)Cc1c[nH]nc1[C@H]1CC[C@]2(CCN(CCC(C)C)C2=O)CC1` [compound 10], 55 nM; with `CNCCN(C)Cc1nnc(C)n1[C@H]1CC[C@]2(CC1)CC(C)(C)CO2` [compound 93], over 10000 nM.

With `CNCCN(C)Cc1n[nH]cc1[C@H]1CC[C@]2(CC1)CC(C)(C)CO2` [compound 116], the IC50 came to 22.9 nM. To `CCOC[C@@H]1CC(c2n[nH]cc2CN(C)CCNC)CCC1(C)C` (stereo partly drawn) [compound 31, {2-[({3-[(3R)-3-(ethoxymethyl)-4,4-dimethylcyclohexyl]-1H-pyrazol-4-yl}methyl)(methyl)amino]ethyl}(methyl)amine] belongs 25 nM; to `CNCCN(C)Cc1ccnn1[C@H]1CC[C@]2(CC1)CC(C)(C)CO2` [compound 50, N1-((1-((5r,8r)-3,3-dimethyl-1-oxaspiro[4.5]decan-8-yl)-1H-pyrazol-5-yl)methyl)-N1,N2-dimethylethane-1,2-diamine], 20.9 nM.

`CNCCN(C)Cc1c[nH]nc1C1CCC2(CCC(OC)CC2)CC1` (stereo not drawn) [compound 9, N1-((3-(9-methoxyspiro[5.5]undecan-3-yl)-1H-pyrazol-4-yl)methyl)-N1,N2-dimethylethane-1,2-diamine] had a 50% inhibitory concentration (IC50) of 8.7 nM. To `CNCCN(C)Cc1c[nH]nc1C1CC(COCC2CC2)CC(COCC2CC2)C1` (stereo not drawn) [compound 2] belongs 69.2 nM. Consider `CNCCN(C)Cc1c[nH]nc1[C@H]1CC[C@@]2(CCCOC2)CC1` [compound 5, N1-((3-((6r,9r)-2-oxaspiro[5.5]undecan-9-yl)-1H-pyrazol-4-yl)methyl)-N1,N2-dimethylethane-1,2-diamine], for which the IC50 was 11.7 nM. To `CNCCN(C)Cc1nn[nH]c1[C@H]1CC[C@@]2(CC1)CC(C)(C)CO2` [compound 67] belongs 11.5 nM; to `Cc1[nH]nc(C2CCC3(CC2)CC(C)(C)CO3)c1CN(C)CCN` (stereo not drawn) [compound 59], 11.4 nM; to `CNCCN(C)Cc1c(C)[nH]nc1[C@H]1CC[C@@]2(CC1)CC(C)(C)CO2` [compound 57], 25.8 nM. To `CNCCN(C)Cc1cncn1[C@H]1CC[C@@]2(CC1)CC(C)(C)CO2` [compound 76] belongs 14.6 nM. The compound `CNCCN(C)Cc1cncn1[C@H]1CC[C@]2(CC1)CC(C)(C)CO2` [compound 98] displayed an IC50 of 4360 nM. Turning to `CCC1(CC)C[C@]2(CC[C@@H](c3n[nH]cc3CN(C)CCNC)CC2)OC1=O` [compound 34, (5r,8r)-3,3-diethyl-8-(4-((methyl(2-(methylamino)ethyl)amino)methyl)-1H-pyrazol-3-yl)-1-oxaspiro[4.5]decan-2-one], the 50% inhibitory concentration (IC50) came out at 15.2 nM. With `CNCCN(C)Cc1nn(C)cc1[C@H]1CC[C@]2(CC1)CC(C)(C)CO2` [compound 103] the figure was 37.2 nM; with `CNCCN(C)Cc1ncsc1[C@H]1CC[C@@]2(CC1)CC(C)(C)CO2` [compound 83], 14.8 nM; with `CN(CCN)Cc1c[nH]nc1[C@H]1CC[C@]2(CC1)CC(C)(C)CO2` [compound 106], 45.3 nM. As for `CNCCN(C)Cc1nocc1[C@H]1CC[C@]2(CC1)CC(C)(C)CO2` [compound 118], the concentration for half-maximal inhibition (IC50) came out at 409 nM. With `CNCCN(C)Cc1nccn1[C@H]1CC[C@@]2(CC1)CC(C)(C)CO2` [compound 69] the figure was 255 nM; with `CNCCN(C)Cc1c(C)noc1[C@H]1CC[C@]2(CC1)CC(C)(C)CO2` [compound 114], 121 nM; with `CNCCN(C)Cc1c[nH]nc1C1CCC(C)(C)[C@H](COCCOC)C1` (stereo partly drawn) [compound 35, {2-[({3-[(3R)-3-[(2-methoxyethoxy)methyl]-4,4-dimethylcyclohexyl]-1H-pyrazol-4-yl}methyl)(methyl)amino]ethyl}(methyl)amine], 51.9 nM. To `CNCCN(C)Cc1cnnn1[C@H]1CC[C@@]2(CC1)CC(C)(C)CO2` [compound 65] belongs over 10000 nM; to `CNCCN(C)Cc1c[nH]nc1[C@H]1CC[C@@]2(CC1)COC(C)(C)C2` [compound 126, N1-((3-((5r,8r)-3,3-dimethyl-2-oxaspiro[4.5]decan-8-yl)-1H-pyrazol-4-yl)methyl)-N1,N2-dimethylethane-1,2-diamine], 14.3 nM. To `Cc1[nH]nc([C@H]2CC[C@]3(CC2)CC(C)(C)CO3)c1CN(C)CCN` [compound 52, N1-((3-((5r,8r)-3,3-dimethyl-1-oxaspiro[4.5]decan-8-yl)-5-methyl-1H-pyrazol-4-yl)methyl)-N1-methylethane-1,2-diamine] belongs 16 nM; to `CNCCN(C)Cc1sc(C)nc1[C@H]1CC[C@]2(CC1)CC(C)(C)CO2` [compound 100], 33.5 nM; to `CNCCN(C)Cc1c(Cl)ncn1[C@H]1CC[C@]2(CC1)CC(C)(C)CO2` [compound 97], 318 nM. `CCOCC1(COCC)CCC(c2n[nH]cc2CN(C)CCN(C)C)CC1` [compound 121] yielded an IC50 of 38 nM.

With `CNCCN(C)Cc1c[nH]nc1C1CCC2(CC1)CC(C)(C)OC2=O` (stereo not drawn) [compound 125], the IC50 stood at 10.7 nM.

For orientation: IC50 means the concentration at which inhibition is half-maximal. The low end stands for higher potency, the high end for lower potency.
